Laboratory results published in US4737504A, “5-fluoro-and 8-fluoro-trimetoquinol compounds and the processes for their preparation” (priority 1986, dated 1988).
Like-named read-outs stand apart in the source and are kept apart here.

Key:
[1] = biological target: T1, U46619-induced contractions of rat thoracic aorta (Rattus norvegicus, UniProt P34978); experiment: antagonism of U46619-induced contractions of rat thoracic aorta; format: cell-based, rat (male Sprague-Dawley); conditions: for Kb: against U46619, read-out: pKB ± SEM (converted); for ΔpD2 of U46619: pD2 (control) - pD2 (treatment); for inhibitory potency on U46619-induced contractions greater than trimetoquinol: relative to trimetoquinol 1
T1 construct: A 2-3 cm segment of thoracic aorta was excised; tissue Harlan Industries, Inc., Cumberland, IN (animals); host or cells: rat thoracic aorta, spirally cut strips
T1 sequence (P34978 1-341): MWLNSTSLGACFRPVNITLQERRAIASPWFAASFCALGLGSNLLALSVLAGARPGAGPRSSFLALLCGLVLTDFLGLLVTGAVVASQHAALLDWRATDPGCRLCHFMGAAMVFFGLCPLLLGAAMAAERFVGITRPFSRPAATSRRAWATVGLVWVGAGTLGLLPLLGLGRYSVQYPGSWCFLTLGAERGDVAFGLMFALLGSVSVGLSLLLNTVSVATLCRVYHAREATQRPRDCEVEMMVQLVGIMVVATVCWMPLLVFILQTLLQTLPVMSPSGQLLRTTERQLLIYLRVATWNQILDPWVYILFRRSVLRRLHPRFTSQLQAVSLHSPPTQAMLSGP
Description: The vasoconstrictive activity of U46619 (a stable thromboxane A2 agonist) on thoracic aorta tissue was determined as follows: Male Sprague-Dawley rats (Harlan Industries, Inc., Cumberland, IN) weighing between 250 and 350 gm were stunned and killed by cervical dislocation. A 2-3 cm segment of thoracic aorta was excised, cleaned of any adhering fat and connecting tissue, spirally cut into 2 matched strips, Constantine, supra. (2.0×0.3 cm). Strips were mounted in 10 ml tissue baths filled with the physiological salt solution in which 3×10^-6 M indomethaecin was present. A tension of 1 gm was applied to the strips. Responses of the tissues to drugs were monitored via Grass FT-03 isometric force transducers connected to a Grass Model 7C polygraph (Grass Instruments Co., Quincy, MA).
Some experiments were done in the absence of indomethacin. Concentration-dependent responses to U46619 were constructed in each preparation as described by Van Rossum, supra.
Effective concentration-50 (EC50) values of the agonists were determined graphically from individual plots of percent response versus log concentration. The potency of each agonist was expressed as a pD2 value where pD2 is equal to the negative logarithm of the experimentally determined EC50 value.
Antagonists were quantitated by calculating their pKB or pA2 values according to the methods of Furchgott, Ann. N.Y. Acad. Sci., 139: 553-570 (1967) and Arunlakshana et al., Br. J. Pharmacol., 14: 48-58 (1959). The pKB value is equivalent to the -log of [I]/(CR-1), where pKB is the negative logarithm of the apparent dissociation constant of the antagonist (KB), [I] is the concentration of the antagonist, and CR is the concentration ratio of the agonist EC50 in the presence of antagonist to the agonist EC50 in the absence of antagonist. To determine significant differences between pD2, pKB or pA2 values, a 5% level of significance was used. Arunlakshana plots were analyzed by computer according to the method of Tallarida et al., Manual of Pharmacological Calculations With Computer Programs, 29-31, (1981).

[2] = tested on: human platelets (U46619-induced aggregation); experiment: inhibition of U46619-induced platelet aggregation in presence of aspirin, human platelet-rich plasma; format: cell-based; conditions: U46619 0.5-1.5 μM, aspirin 1 mM
Description: The antiaggregatory and antisecretory activity on human platelets was determined by evaluating the in vitro aggregation and [^14 C]serotonin secretion in human platelet preparations. Blood was taken by venipuncture from normal human volunteers who were reported to be free of medication for at least 10 days before blood drawing. Venous blood samples were mixed with acid-citrate dextrose solution (9:1) and centrifuged at 120×g for 15 minutes at room temperature to obtain platelet-rich plasma, PRP, (Huzoor-Akbar et al., Biochem. Pharmacol., 30: 2013-2020, 1981). The PRP was transferred to polypropylene tubes and stored under an atmosphere of 8% CO2. The remaining blood was centrifuged at 1000×g for 10 minutes to obtain platelet-poor plasma. […] Platelet counts varied between 280,000 to 320,000 per cmm or were adjusted to 300,000 per cmm for the aggregation and secretion experiments. All studies were conducted within 2 hours after PRP recovery.
For aggregation studies, 0.5 ml of PRP was incubated with drug or vehicle (1-5 μl) for 1 minute at 37° C. before the initiation of aggregation with inducers. […] In all experiments, the minimum concentration of inducer (adenosine diphosphate ADP; epinephrine, E; 15S-hydroxy-11α,9α-epoxymethanoprosta-5Z,13E-dienoic acid, U46619; collagen; and arachidonic acid, AA) which caused maximal irreversible aggregation within each PRP preparation was used. Aggregation was monitored for 4 to 6 minutes after the addition of an inducer and data were presented as a percentage inhibition of either slope or maximal light transmittance changes in the presence of varying drug concentrations.

[3] = phenol acidities (pKa) determined spectrophotometrically; format: physicochemical; conditions: for pKa: phenol, tris(hydroxymethyl)aminomethane buffer, UV; for times more acidic than 1: relative to trimetoquinol 1
Description: Phenol acidities (pKa) were determined spectrophotometrically, as described by Albert et al., "The determination of Ionization Constants" 3rd Ed., Chapman and Hall, London and New York, 1984, by measuring the absorption as a function of pH in tris(hydroxymethyl)aminomethane buffer. Since the catechols tended to oxidize in basic media the buffers were degassed and flushed with argon prior to use.

[4] = read-out: IC50 platelet aggregation
[5] = read-out: pIC50 platelet aggregation (converted)

SMILES	Kb ([1]; analog 1 × 10^-4 M) [µM]	Kb ([1]; analog 3 × 10^-5 M) [µM]	Kb ([1]; analog 3 × 10^-6 M) [µM]	pD2 of U46619 in presence of analog ([1]; analog 1 × 10^-4 M)	pD2 of U46619 in presence of analog ([1]; analog 3 × 10^-5 M)	pD2 of U46619 in presence of analog ([1]; analog 3 × 10^-6 M)	ΔpD2 of U46619 ([1]; analog 1 × 10^-4 M)	ΔpD2 of U46619 ([1]; analog 3 × 10^-5 M)	ΔpD2 of U46619 ([1]; analog 3 × 10^-6 M)	inhibitory potency on U46619-induced contractions greater than trimetoquinol [1]	IC50 [2, 4] [µM]	IC50 [2, 5] [µM]	pKa [3]	times more acidic than 1 [3] [times]	Kb ([1]; analog 1 × 10^-5 M) [µM]	pD2 of U46619 in presence of analog ([1]; analog 1 × 10^-5 M)	ΔpD2 of U46619 ([1]; analog 1 × 10^-5 M)
COc1cc(CC2NCCc3c2cc(O)c(O)c3F)cc(OC)c1OC (stereo not shown) [Compound 5-F-TMQ, 5-fluoro-trimetoquinol]	1.74	3.16	1.51	6.40 ± 0.16	7.14 ± 0.08	7.69 ± 0.08	1.77 ± 0.16	1.02 ± 0.08	0.48 ± 0.07	about 2 fold	7.4	7.41	8.11 ± 0.15	4	–	–	–
COc1cc(CC2NCCc3cc(O)c(O)c(F)c32)cc(OC)c1OC (stereo not shown) [Compound 8-F-TMQ, 8-fluoro-trimetoquinol]	–	0.372	0.38	–	6.25 ± 0.14	7.20 ± 0.12	–	1.92 ± 0.14	0.96 ± 0.19	~10 fold	3.9	3.89	7.86 ± 0.15	8	0.251	6.81 ± 0.12	1.36 ± 0.12
